Test results as given in US7258999B2, “PTH responsive gene” (Wyeth, priority 2002, dated 2007).

Key:
[1] = test system: PAIGB expression in ROS 17/2.8 cells; assay: Real time PCR of PAIGB expression in ROS 17/2.8 cells; assay type: cell-based, rat; conditions: for effect on PAIGB expression after 4 hours of treatment: estrogen 10 nM, tamoxifen 0.1 μM, BMP2 300 ng/ml, calcitonin 5 ng/ml
From the text: Applicants performed multiplex real time PCR (TaqMan) analysis on previously DNAsed samples using gene specific probe and primers and 18S ribosomal RNA probe and primer sets purchased from Applied Biosystem. (Foster City, Calif.) The samples were DNAsed according to the protocol provided by Ambion (DNA-free kit). TaqMan probe and primers for PAIGB was identify using Primer Express computer program. The sequence for rat PAIGB TaqMan probe was 6FAM-5′[…] (SEQ ID NO: 16) forward and reverse primers were 5′[…] 3′ (SEQ ID NO:17) and 5′ […] 3′ (SEQ ID NO:18) respectively. The final concentrations for probes were 500 nM and 40 nM for PAIGB and 18S ribosomal RNA or GAPDH respectively. The concentrations of the primers were 500 nM for PAIGB forward and reversed primers while 18S primers were 10 and 20 nM for forward and reversed primer respectively or 40 nM for GAPDH primers. Standards for rat samples were made from rat tibia or brain RNA in the range of 250 ng to 0.1 ng, while standards for mouse specific TaqMan were made from mouse brain RNA and human standards from human brain RNA (Clonetech, Palo Alto, Calif.) spanning the same range of concentration. Primers and probes for mouse PAIGB were: forward 5′ […] 3′ (SEQ ID NO:19), reverse, 5′ […] (SEQ ID NO:21). Primers and probes for human PAIGB were: forward 5′ […] 3′ (SEQ ID NO:22), reverse 5′ […] 3′(SEQ ID NO: 24). The Taq-man analysis was done using ABI 7700 Sequence Detector under following conditions: 30 min at 48° C., 10 min at 95° C. and 40 cycles of 15 sec at 95° C. and 60 sec at 60° C. Analysis of real-time PCR analysis was performed using (Sequence Detector, Macintosh) program.
Five cell types were primarily used in our experiments. Rat osteoblast cell line (ROS 17/2.8) that expresses moderate levels of PTH receptor 1 (Rodan et al, Rev. Eukaryotic Gene Expression 1:85-98, 1991) were used to perform in vitro experiments. ROS cells were maintained under standard cell culture conditions: 10% heat inactivated FBS in Dulbecco's Modified Eagle Medium with Nutrient Mixture F-12 (DMEM/F12) media, 1% Penicillin/Streptomycin and 1% Glutamax. Mouse cell line C3H10T½ (ATCC# CCL226) as a representative of mouse osteoprogenitor cell line were maintained in Eagles Minimal Essential Media (EMEM) with the addition of 10% heat inactivated FBS and 1% Penicillin/Streptomycin and 1% Glutamax. UMR106 rat osteoblastic cells (ATCC# CRL1661) were cultured in Dulbecco's Modified Eagle Medium (DMEM) supplemented with 10% heat inactivated FBS, 1% Penicillin/Streptomycin and 1% Glutamax. The U2OS human osteoblastic cells (ATCC# HTB96) were cultured in McCoy's 5A Medium Modified supplemented with 10% FBS, 1% Penicillin/Streptomycin and 1% Glutamax. The human HOB-03-CE6 cell line (Bodine, V. N. P., et. al., J. Cell. Biochem., 65: 368-387,1997) was maintained in phenol red free DMEM/F12 media supplemented with 10% heat inactivated FBS and 1% Penicillin/Streptomycin and 1% Glutamax.
ROS 17/2.8 rat osteoblast cell line that express PTH receptor (˜80000 receptors/cell) were treated with increased doses of PTH: 1 nM, 10 nM, 100 nM and 1000 nM. Real time PCR using rat specific Taq-man probes and primers were used to examine the changes in PAIGB expression with PTH treatment.
Time course of PTH induction of PAIGB expression was examined. ROS 17/2.8_cells were treated with 10 nM PTH and RNA was harvested at 1, 2, 4, 6, 8 and 24 hours post treatment.

[2] = test system: PAIGB expression in UMR106 cells; assay: Real time PCR of PAIGB expression in UMR106 cells; assay type: cell-based, rat
From the text: Applicants performed multiplex real time PCR (TaqMan) analysis on previously DNAsed samples using gene specific probe and primers and 18S ribosomal RNA probe and primer sets purchased from Applied Biosystem. (Foster City, Calif.) The samples were DNAsed according to the protocol provided by Ambion (DNA-free kit). TaqMan probe and primers for PAIGB was identify using Primer Express computer program. The sequence for rat PAIGB TaqMan probe was 6FAM-5′[…] (SEQ ID NO: 16) forward and reverse primers were 5′[…] 3′ (SEQ ID NO:17) and 5′ […] 3′ (SEQ ID NO:18) respectively. The final concentrations for probes were 500 nM and 40 nM for PAIGB and 18S ribosomal RNA or GAPDH respectively. The concentrations of the primers were 500 nM for PAIGB forward and reversed primers while 18S primers were 10 and 20 nM for forward and reversed primer respectively or 40 nM for GAPDH primers. Standards for rat samples were made from rat tibia or brain RNA in the range of 250 ng to 0.1 ng, while standards for mouse specific TaqMan were made from mouse brain RNA and human standards from human brain RNA (Clonetech, Palo Alto, Calif.) spanning the same range of concentration. Primers and probes for mouse PAIGB were: forward 5′ […] 3′ (SEQ ID NO:19), reverse, 5′ […] 3′ (SEQ ID NO:20) anti-sense and probe 5′ 6FAM-[…] (SEQ ID NO:21). Primers and probes for human PAIGB were: forward 5′ […] 3′ (SEQ ID NO:22), reverse 5′ […] […]

CCCCC[C@H](O)/C=C/[C@H]1[C@H](O)CC(=O)[C@@H]1C/C=C\CCCC(=O)O [PGE2, prostaglandin E2]
induction of PAIGB mRNA expression ([1]; two concentrations 10 nM and 10 μM, 4 hours): only at the lower dose

COc1ccc(C2CNC(=O)C2)cc1OC1CCCC1 (stereo not shown) [Rolipram]
PAIGB expression ([1]; ROS 17/2.8 cells, data not shown): Increases
PAIGB expression ([2]; UMR 106 cells, data not shown): Increases

Nc1ncnc2c1ncn2C1CCCO1 (stereo not shown) [SQ 22536]
blocking of the effect of PTH on PAIGB expression ([1]; 200 μM, 2 hours pretreatment, then 10 nM PTH 4 hours): completely blocks

C[C@@H]1C[C@H]2[C@@H]3CCC4=CC(=O)C=C[C@]4(C)[C@@]3(F)[C@@H](O)C[C@]2(C)[C@@]1(O)C(=O)CO [dexamethasone]
increase in PAIGB expression ([1]; 100 nM, 4 hours): 2-3 fold

CC(C)NCC(O)c1ccc(O)c(O)c1 (stereo not shown) [isoproterenol]
increase in PAIGB expression ([1]; data not shown, concentration and cell line not restated): 2 fold

CC/C(=C(\c1ccccc1)c1ccc(OCCN(C)C)cc1)c1ccccc1 [tamoxifen]
effect on PAIGB expression after 4 hours of treatment ([1]; 4 hours): did not have any effect

C=C1CC[C@H](O)C/C1=C/C=C1\CCC[C@]2(C)[C@@H]([C@H](C)CCCC(C)C)CC[C@@H]12 [vitamin D3]
PAIGB expression in UMR106 cells ([2]; UMR106 cells): induced

PKC inhibitor: Protein Kinase C inhibitor (PKC)19-27, an inhibitor of PKC signaling pathway (RFARKGALR; pseudosubstrate peptide; UniProt P17252 19-27, looked up, fragment)
blocking of PTH induced PAIGB expression ([1]; 10 μM, 2 hours pretreatment, then 10 nM PTH 4 hours): little to no effect

calcitonin
effect on PAIGB expression after 4 hours of treatment ([1]; 4 hours): did not have any effect
